Results: US8673964B2, “Use of drug combinations for treating insulin resistance” (DiaMedica Inc., priority 2004, dated 2014)
Values joined by “and” are separate entries in the source; they are usually repeats but may differ in a detail not shown here. Identical values can stand only once.

Key:
sucrose fed rats = experiment: Rapid insulin sensitivity test (RIST): meal induced insulin sensitization in control diet and sucrose fed rats; type: in vivo, Sprague Dawley rats; conditions: individual animals
Method: Animal Groups—Male Sprague Dawley rats having a starting weight of ≧220.0 g (Charles River, St. Constant, Quebec, Canada) were fed a normal rat chow diet and regular tap water, with and without the exposure to a 35% liquid sucrose solution for a 2 week period. Six groups of animals were established under the following treatments: […] (2) control diet, bethanechol (0.5 μg/kg ipv) and N-acetyl-L-cysteine (200 mg/kg) treatment (n=8); (3) control diet, bethanechol (0.5 μg/kg ipv) (n=5); (4) control diet, N-acetyl-L-cysteine (200 mg/kg) (n=4); (5) sucrose diet, saline treatment (n=4); (6) sucrose diet, bethanechol (0.5 μg/kg ipv) and N-acetyl-L-cysteine (200 mg/kg) treatment (n=5); (7) sucrose diet, bethanechol (0.5 μg/kg ipv) (n=6); and (8) sucrose diet, N-acetyl-L-cysteine (200 mg/kg) (n=3). Methodology—All animals are 24 hour fasted. The animals are prepared using the standard RIST surgical preparation. The rats are anaesthetized with an intraperitoneal injection of sodium pentobarbital (65 mg kg-1; Somnotol, MTC Pharmaceuticals, Ont). […] The rats are placed on a temperature-controlled surgical table (Harvard Apparatus, Kent, England) and rectal temperature is monitored and held at 37-37.5° C. Spontaneous respiration is allowed through a tracheal tube. An arterial-venous shunt is established, as previous described (Lautt W W et al. Can J Physiol Pharmacol. 1998; 76 (12): 1080-6), for monitoring mean arterial blood pressure (MAP), blood glucose level and for drug delivery. Briefly, two catheters (polyethylene tubing PE60), one inserted into the right femoral artery and the other into the right femoral vein, are connected to the two openings of a three way vascular circuit consisting of a T tube connected with silicon tubing. The third opening of the circuit is connected to a pressure transducer for the recording of the shunt pressure which, when the silicon tubing toward the venous side of the circuit is closed by clamping, represented the systemic arterial blood pressure. Blood samples are taken from the arterial side of the shunt for the glucose measurement. Flowing blood within the shunt assures the real time measurement of the blood glucose concentration, which is essential for the euglycemic clamp test as mentioned below. An infusion line is inserted into the venous side of the loop for drug delivery. Another infusion line connected to the jugular vein is established for glucose infusion. Animals are heparinized (100 IU·kg-1) to prevent clotting in the vascular loop. […] A control RIST is performed as previously described (Lautt W W et al. Can J Physiol Pharmacol. 1998; 76 (12): 1080-6). […] The baseline glucose levels are then determined by samples taken at 5-min intervals and continued until three successive stable determinations were made. […]

[1] = tested on: Rats with Insulin Resistance Produced by Hepatic Denervation; experiment: RIST in rats with insulin resistance produced by hepatic denervation; type: in vivo

For `CC(C[N+](C)(C)C)OC(N)=O` (stereo not shown) [Bethanechol, bethanechol], the “percent potentation of RIST as compared to control” value (shortened to “percent potentation of RIST”) (sucrose fed rats; Control Diet, bethanechol 0.5 μg/kg ipv alone, listed as BCH) was 9.06% and 15.19% and 35.62% and 33.87% and 60.33%, the “percent potentation of RIST” value (sucrose fed rats; Sucrose Diet, bethanechol 0.5 μg/kg ipv alone, listed as BCH) was 45.59% and 13.22% and −13.22% and 14.22% and 7.71% and 22.36% and the “RIST index after surgical hepatic denervation” value (shortened to “RIST index”) ([1]; bethanechol infusion into the portal vein 2.5 mg/kg/min from 10 minutes prior to insulin, entire test period) was “reversal of the insulin resistance”.
`CC(=O)N[C@@H](CS)C(=O)O` [NAC, N-acetyl-L-cysteine] was tested, and the “percent potentation of RIST” value (sucrose fed rats; Control Diet, N-acetyl-L-cysteine 200 mg/kg alone) was 33.5% and 27.39% and 57.25% and 1.89%, the “percent potentation of RIST” value (sucrose fed rats; Sucrose Diet, N-acetyl-L-cysteine 200 mg/kg alone) was 3% and −13.85% and −2.63% and the “RIST index” value ([1]; NAC (200 mg/mL) infusion into the portal vein 0.1 mL/min for 2 minutes) was “reversal of the insulin resistance”.
`[NH-]c1c[n+](N2CCOCC2)no1` [SIN-1, 3-morpholinosyndnonimine] was tested, and the “RIST index” value ([1]; SIN-1 infusion into the portal vein 10.0 mg/kg/min for 2 minutes) was “reversal of the insulin resistance”.
